Measurements: patent publication US12377071B2, “Methods of treating conditions related to the S1P1 receptor” (Arena Pharmaceuticals, Inc., priority 2015, dated 2025)
Structures can show the parent of a compound that is named as a salt.

What was measured:
Format in all cases: in vivo, human
Conditions in all cases: Day 1 to Day 28
healthy adult subjects [1] = assay: Multiple ascending dose study: diastolic BP, safety population
Experimental: (§1) A randomized, double-blind, placebo-controlled, sequential, ascending, multiple dose study to assess the safety, tolerability, and pharmacokinetics of the L-arginine salt of Compound 1 administered to healthy adult subjects was conducted. This study was designed to evaluate the safety, tolerability, pharmacokinetics, and pharmacodynamics of the L-arginine salt of Compound 1.
(§2) Cohort 1 was dosed with 0.7 mg (by administering two 0.35 mg formulations) for 21 days. Cohort 2 was dosed with 1.35 mg (by administering both a 0.35 mg formulation and a 1 mg formulation) for 21 days. Cohort 3 was dosed with 2.0 mg for 21 days. Cohort 4 was dosed with 0.35 mg for 7 days and then with 2.0 mg for 14 days. Cohort 5 was dosed with 0.5 for 7 days and then with 3.0 mg (by administering both a 1 mg formulation and a 2 mg formulation) for 14 days.
(§3) The following safety assessments were conducted: physical examinations with ophthalmoscopy, clinical laboratory tests (serum chemistry, coagulation, and urinalysis), vital signs, continuous telemetry (12 lead ECG), safety ECGs, pulmonary function testing (PFT), serum protein electrophoresis (SPEP) and serum immunoelectrophoresis (IEP), and adverse event reporting.

healthy adult subjects [2] = assay: Multiple ascending dose study: systolic BP, safety population
Experimental: as §1, §2, §3

healthy adult subjects [3] = assay: Multiple ascending dose study: heart rate, safety population
Experimental: as §1, §2, §3

[4] = 0.35 mg for 7 days then 2.0 mg for 14 days
[5] = 0.5 mg for 7 days then 3.0 mg for 14 days

O=C(O)C[C@H]1CCc2c1[nH]c1ccc(OCc3ccc(C4CCCC4)c(C(F)(F)F)c3)cc21 [L-arginine salt of Compound 1]
Minimum Value for Post-dose Diastolic BP, On Treatment Mean (healthy adult subjects [1]; [4]): 50.80 mmHg | Minimum Value for Post-dose Diastolic BP, Change from Baseline, Mean (healthy adult subjects [1]; [5]): −6.30 mmHg | Minimum Value for Post-dose Diastolic BP, Change from Baseline, Median (healthy adult subjects [1]; [5]): −7.00 mmHg | Minimum Value for Post-dose Diastolic BP, Change from Baseline, Min, Max (healthy adult subjects [1]; [5]): −13.00 to 3.00 mmHg | Minimum Value for Post-dose Diastolic BP, On Treatment Mean (healthy adult subjects [1]; [5]): 50.20 mmHg | Minimum Value for Post-dose Diastolic BP, Change from Baseline, Mean (healthy adult subjects [1]; 0.7 mg for 21 days): −6.10 mmHg | Minimum Value for Post-dose Diastolic BP, Change from Baseline, Median (healthy adult subjects [1]; 0.7 mg for 21 days): −6.00 mmHg | Minimum Value for Post-dose Diastolic BP, Change from Baseline, Min, Max (healthy adult subjects [1]; 0.7 mg for 21 days): −16.00 to 2.00 mmHg | Minimum Value for Post-dose Diastolic BP, On Treatment Mean (healthy adult subjects [1]; 0.7 mg for 21 days): 56.00 mmHg | Minimum Value for Post-dose Diastolic BP, Change from Baseline, Mean (healthy adult subjects [1]; 1.35 mg for 21 days): −5.20 mmHg | Minimum Value for Post-dose Diastolic BP, Change from Baseline, Median (healthy adult subjects [1]; 1.35 mg for 21 days): −7.50 mmHg | Minimum Value for Post-dose Diastolic BP, Change from Baseline, Min, Max (healthy adult subjects [1]; 1.35 mg for 21 days): −11.00 to 6.00 mmHg | Minimum Value for Post-dose Diastolic BP, On Treatment Mean (healthy adult subjects [1]; 1.35 mg for 21 days): 53.70 mmHg | Minimum Value for Post-dose Diastolic BP, Change from Baseline, Mean (healthy adult subjects [1]; 2.0 mg for 21 days): −11.20 mmHg | Minimum Value for Post-dose Diastolic BP, Change from Baseline, Median (healthy adult subjects [1]; 2.0 mg for 21 days): −9.00 mmHg | Minimum Value for Post-dose Diastolic BP, Change from Baseline, Min, Max (healthy adult subjects [1]; 2.0 mg for 21 days): −21.00 to −4.00 mmHg | Minimum Value for Post-dose Diastolic BP, On Treatment Mean (healthy adult subjects [1]; 2.0 mg for 21 days): 45.30 mmHg | Minimum Value for Post-dose Systolic BP, Change from Baseline, Mean (healthy adult subjects [2]; [4]): −13.00 mmHg | Minimum Value for Post-dose Systolic BP, Change from Baseline, Median (healthy adult subjects [2]; [4]): −13.00 mmHg | Minimum Value for Post-dose Systolic BP, Change from Baseline, Min, Max (healthy adult subjects [2]; [4]): −28.00 to 0.00 mmHg | Minimum Value for Post-dose Systolic BP, On Treatment Mean (healthy adult subjects [2]; [4]): 94.30 mmHg | Minimum Value for Post-dose Systolic BP, Change from Baseline, Mean (healthy adult subjects [2]; [5]): −7.80 mmHg | Minimum Value for Post-dose Systolic BP, Change from Baseline, Median (healthy adult subjects [2]; [5]): −5.00 mmHg | Minimum Value for Post-dose Systolic BP, Change from Baseline, Min, Max (healthy adult subjects [2]; [5]): −18.00 to 5.00 mmHg | Minimum Value for Post-dose Systolic BP, On Treatment Mean (healthy adult subjects [2]; [5]): 93.20 mmHg | Minimum Value for Post-dose Systolic BP, Change from Baseline, Mean (healthy adult subjects [2]; 0.7 mg for 21 days): −9.70 mmHg | Minimum Value for Post-dose Systolic BP, Change from Baseline, Median (healthy adult subjects [2]; 0.7 mg for 21 days): −9.50 mmHg | Minimum Value for Post-dose Systolic BP, Change from Baseline, Min, Max (healthy adult subjects [2]; 0.7 mg for 21 days): −16.00 to −1.00 mmHg | Minimum Value for Post-dose Systolic BP, On Treatment Mean (healthy adult subjects [2]; 0.7 mg for 21 days): 96.10 mmHg | Minimum Value for Post-dose Systolic BP, Change from Baseline, Mean (healthy adult subjects [2]; 1.35 mg for 21 days): −8.90 mmHg | Minimum Value for Post-dose Systolic BP, Change from Baseline, Median (healthy adult subjects [2]; 1.35 mg for 21 days): −8.00 mmHg | Minimum Value for Post-dose Systolic BP, Change from Baseline, Min, Max (healthy adult subjects [2]; 1.35 mg for 21 days): −22.00 to 3.00 mmHg | Minimum Value for Post-dose Systolic BP, On Treatment Mean (healthy adult subjects [2]; 1.35 mg for 21 days): 100.10 mmHg | Minimum Value for Post-dose Systolic BP, Change from Baseline, Mean (healthy adult subjects [2]; 2.0 mg for 21 days): −9.80 mmHg | Minimum Value for Post-dose Systolic BP, Change from Baseline, Median (healthy adult subjects [2]; 2.0 mg for 21 days): −9.00 mmHg | Minimum Value for Post-dose Systolic BP, Change from Baseline, Min, Max (healthy adult subjects [2]; 2.0 mg for 21 days): −18.00 to −4.00 mmHg | Minimum Value for Post-dose Systolic BP, On Treatment Mean (healthy adult subjects [2]; 2.0 mg for 21 days): 90.80 mmHg | Minimum Value for Post-dose Heart Rate, Change from Baseline, Mean (healthy adult subjects [3]; [4]): −10.60 BPM | Minimum Value for Post-dose Heart Rate, Change from Baseline, Median (healthy adult subjects [3]; [4]): −7.00 BPM | Minimum Value for Post-dose Heart Rate, Change from Baseline, Min, Max (healthy adult subjects [3]; [4]): −35.00 to 3.00 BPM | Minimum Value for Post-dose Heart Rate, On Treatment Mean (healthy adult subjects [3]; [4]): 52.00 BPM | Minimum Value for Post-dose Heart Rate, Change from Baseline, Mean (healthy adult subjects [3]; [5]): −7.30 BPM | Minimum Value for Post-dose Heart Rate, Change from Baseline, Median (healthy adult subjects [3]; [5]): −6.50 BPM | Minimum Value for Post-dose Heart Rate, Change from Baseline, Min, Max (healthy adult subjects [3]; [5]): −14.00 to −2.00 BPM | Minimum Value for Post-dose Heart Rate, On Treatment Mean (healthy adult subjects [3]; [5]): 53.80 BPM | Minimum Value for Post-dose Heart Rate, Change from Baseline, Mean (healthy adult subjects [3]; 0.7 mg for 21 days): −5.50 BPM | Minimum Value for Post-dose Heart Rate, Change from Baseline, Median (healthy adult subjects [3]; 0.7 mg for 21 days): −5.00 BPM | Minimum Value for Post-dose Heart Rate, Change from Baseline, Min, Max (healthy adult subjects [3]; 0.7 mg for 21 days): −12.00 to −1.00 BPM | Minimum Value for Post-dose Heart Rate, On Treatment Mean (healthy adult subjects [3]; 0.7 mg for 21 days): 54.20 BPM | Minimum Value for Post-dose Heart Rate, Change from Baseline, Mean (healthy adult subjects [3]; 1.35 mg for 21 days): −6.20 BPM | Minimum Value for Post-dose Heart Rate, Change from Baseline, Median (healthy adult subjects [3]; 1.35 mg for 21 days): −5.00 BPM | Minimum Value for Post-dose Heart Rate, Change from Baseline, Min, Max (healthy adult subjects [3]; 1.35 mg for 21 days): −18.00 to 3.00 BPM | Minimum Value for Post-dose Heart Rate, On Treatment Mean (healthy adult subjects [3]; 1.35 mg for 21 days): 54.40 BPM | Minimum Value for Post-dose Heart Rate, Change from Baseline, Mean (healthy adult subjects [3]; 2.0 mg for 21 days): −8.30 BPM | Minimum Value for Post-dose Heart Rate, Change from Baseline, Median (healthy adult subjects [3]; 2.0 mg for 21 days): −7.50 BPM | Minimum Value for Post-dose Heart Rate, Change from Baseline, Min, Max (healthy adult subjects [3]; 2.0 mg for 21 days): −16.00 to −3.00 BPM | Minimum Value for Post-dose Heart Rate, On Treatment Mean (healthy adult subjects [3]; 2.0 mg for 21 days): 51.00 BPM
